Assay results published in patent US20240317749A1, “THERAPEUTIC COMPOUNDS” (priority 2021, published 2024).
Values after ≈ are worked out from the molar mass of the structure shown.

Key:
[1] = test system: N. gonorrhoeae ATCC 49226; assay: MIC assay for N. gonorrhoeae, broth microdilution in Todd-Hewitt (TH) broth; assay type: cell-based; details: Neisseria gonorrhoeae, ATCC49226; Antibacterial Activity against N. gonorrhoeae ATCC 49226 in TH
Description: MIC assays for N. gonorrhoeae were done using the ATCC 49226 strain. The procedure guidelines recommended by the Clinical and Laboratory Standards Institute (CLSI) for the broth microdilution MIC assay were modified by substituting […]. Also, the recommended bacterial inoculum was modified to meet the high inoculum demands needed for N. gonorrhoeae growth. A 96-well plate containing TH broth with 2-fold serial dilution of compounds was inoculated with log-phase bacterial at 2.5×10^7 CFU/mL. The final volume in each well was 200 μL. Each compound was tested in duplicate. The microtiter plates were incubated in an […] environment for 24 hours at 37° C. using the candle jar technique. Then the bacterial growth was tested by reading the plate with a SpectraMax iD5 plate reader (Molecular Devices, Inc.) at 600 nm. The MIC was defined as the lowest compound concentration that inhibited bacteria growth.

P. mirabilis ATCC 29906 = assay: MIC assay, CLSI broth microdilution in CAMH broth; assay type: cell-based, Proteus mirabilis
Method: (§1) MIC assays for various Gram-negative and Gram-positive strains were conducted in accordance with the CLSI guidelines for broth microdilution. A 96-well plate containing CAMH broth with 2-fold serial dilution of compounds was inoculated with log-phase bacterial at 5×10^5 CFU/mL. The final volume in each well was 100 μL. Each compound was tested in duplicate. The microtiter plates were incubated in an aerobic environment for 18 hours at 37° C. Then the bacterial growth was tested by reading the plate with a SpectraMax iD5 plate reader (Molecular Devices, Inc.) at 600 nm. The MIC was defined as the lowest compound concentration that inhibited bacteria growth.
(§2) The following Gram-negative and Gram-positive strains were used in the aerobic MIC procedure: • P. aeruginosa ATCC 27853 • A. baumannii ATCC 19606 • E. coli ATCC 25922 • E. coli W4573 • E. coli N43 • K. pneumoniae ATCC 10031 • K. pneumoniae ATCC 13883 • S. sonnei ATCC 29930 • P. mirabilis ATCC 29906 • Methicillin-susceptible S. aureus (MSSA) ATCC 19636 • Methicillin-resistant S. aureus (MRSA) ATCC 33951

[2] = test system: Methicillin-susceptible S. aureus (MSSA) ATCC 19636; assay: MIC assay, CLSI broth microdilution in CAMH broth; assay type: cell-based, Staphylococcus aureus
Method: as §1, §2

[3] = test system: Methicillin-resistant S. aureus (MRSA) ATCC 33591; assay: MIC assay, CLSI broth microdilution in CAMH broth; assay type: cell-based, Staphylococcus aureus
Method: as §1, with “growth. […]” for “growth.”

| MIC [1] | Structure (SMILES) | Intrinsic MIC in CAMH (P. mirabilis ATCC 29906) | Intrinsic MIC in CAMH [2] | Intrinsic MIC in CAMH [3] |
| --- | --- | --- | --- | --- |
| 8 µg/mL (≈ 27.6 µM) | Nc1nc(N)c2ccc3c(ccn3Cc3ccccc3)c2n1 [Example 1, 7-benzyl-7H-pyrrolo[2,3-h]quinazoline-2,4-diamine] | – | – | – |
| 16 µg/mL (≈ 50.9 µM) | N#Cc1ccc(Cn2ccc3c4nc(N)nc(N)c4ccc32)cc1 [Example 5, 4-((2,4-diamino-7H-pyrrolo[2,3-h]quinazolin-7-yl)methyl)benzonitrile] | – | – | – |
| 8 µg/mL (≈ 22.4 µM) | Nc1nc(N)c2ccc3c(ccn3Cc3cccc(C(F)(F)F)c3)c2n1 [Example 8, 7-(3-(trifluoromethyl)benzyl)-7H-pyrrolo[2,3-h]quinazoline-2,4-diamine] | – | – | – |
| 16 µg/mL (≈ 42.9 µM) | Nc1nc(N)c2ccc3c(ccn3Cc3ccc(OC(F)(F)F)cc3)c2n1 [Example 9, 7-(4-(trifluoromethoxy)benzyl)-7H-pyrrolo[2,3-h]quinazoline-2,4-diamine] | – | – | – |
| 4 µg/mL (≈ 12.1 µM) | CC(C)c1ccc(Cn2ccc3c4nc(N)nc(N)c4ccc32)cc1 [Example 10, 7-(4-isopropylbenzyl)-7H-pyrrolo[2,3-h]quinazoline-2,4-diamine] | – | – | – |
| 4 µg/mL (≈ 10.7 µM) | Nc1nc(N)c2ccc3c(ccn3Cc3ccc(C(F)(F)F)c(F)c3)c2n1 [Example 11, 7-(3-fluoro-4-(trifluoromethyl)benzyl)-7H-pyrrolo[2,3-h]quinazoline-2,4-diamine] | – | – | – |
| 4 µg/mL (≈ 11.7 µM) | Nc1nc(N)c2ccc3c(ccn3Cc3cc(Cl)ccc3F)c2n1 [Example 12, 7-(5-chloro-2-fluorobenzyl)-7H-pyrrolo[2,3-h]quinazoline-2,4-diamine] | – | – | – |
| 16 µg/mL (≈ 44.7 µM) | Nc1nc(N)c2ccc3c(ccn3Cc3cc(Cl)ccc3Cl)c2n1 [Example 13, 7-(2,5-dichlorobenzyl)-7H-pyrrolo[2,3-h]quinazoline-2,4-diamine] | – | – | – |
| > 64 µg/mL | COc1cc(Cn2ccc3c4nc(N)nc(N)c4ccc32)cc(OC)c1 [Example 14, 7-(3,5-dimethoxybenzyl)-7H-pyrrolo[2,3-h]quinazoline-2,4-diamine] | – | – | – |
| 8 µg/mL (≈ 21 µM) | Nc1nc(N)c2ccc3c(ccn3Cc3ccc(Oc4ccccc4)cc3)c2n1 [Example 15, 7-(4-phenoxybenzyl)-7H-pyrrolo[2,3-h]quinazoline-2,4-diamine] | – | – | – |
| 8 µg/mL (≈ 21.9 µM) | Nc1nc(N)c2ccc3c(ccn3Cc3ccc(-c4ccccc4)cc3)c2n1 [Example 17, 7-([1,1′-biphenyl]-4-ylmethyl)-7H-pyrrolo[2,3-h]quinazoline-2,4-diamine] | – | – | – |
| 16 µg/mL (≈ 43.8 µM) | Nc1nc(N)c2ccc3c(ccn3Cc3cccc(-c4ccccc4)c3)c2n1 [Example 18, 7-([1,1′-biphenyl]-3-ylmethyl)-7H-pyrrolo[2,3-h]quinazoline-2,4-diamine] | – | – | – |
| 0.25 µg/mL (≈ 0.64 µM) | N#Cc1ccccc1-c1ccc(Cn2ccc3c4nc(N)nc(N)c4ccc32)cc1 [Example 19, 4′-((2,4-diamino-7H-pyrrolo[2,3-h]quinazolin-7-yl)methyl)-[1,1′-biphenyl]-2-carbonitrile] | – | – | – |
| > 32 µg/mL | COC(=O)c1ccc(-c2ccc(Cn3ccc4c5nc(N)nc(N)c5ccc43)cc2)cc1 [Example 20, methyl 4′-((2,4-diamino-7H-pyrrolo[2,3-h]quinazolin-7-yl)methyl)-[1,1′-biphenyl]-4-carboxylate] | – | – | – |
| 16 µg/mL (≈ 43.3 µM) | Nc1nc(N)c2ccc3c(ccn3Cc3ccc(Br)cn3)c2n1 [Example 22, 7-((5-bromopyridin-2-yl)methyl)-7H-pyrrolo[2,3-h]quinazoline-2,4-diamine] | – | – | – |
| > 64 µg/mL | Cn1c(Cn2ccc3c4nc(N)nc(N)c4ccc32)nc2ccccc21 [Example 23, 7-((1-methyl-1H-benzo[d]midazole-2-yl)methyl)-7H-pyrrolo[2,3-h]quinazoline-2,4-diamine] | – | – | – |

| MIC [1] | Structure (SMILES) | Intrinsic MIC in CAMH (P. mirabilis ATCC 29906) | Intrinsic MIC in CAMH [2] | Intrinsic MIC in CAMH [3] |
| --- | --- | --- | --- | --- |
| 4 µg/mL (≈ 10.7 µM) | Nc1nc(N)c2ccc3c(ccn3Cc3nc(-c4ccccc4)cs3)c2n1 [Example 24, 7-((4-phenylthiazol-2-yl)methyl)-7H-pyrrolo[2,3-h]quinazoline-2,4-diamine] | – | – | – |
| 4 µg/mL (≈ 15 µM) | CC(C)=CCn1ccc2c3nc(N)nc(N)c3ccc21 [Example 25, 7-(3-methylbut-2-en-1-yl)-7H-pyrrolo[2,3-h]quinazoline-2,4-diamine] | – | – | – |
| 8 µg/mL (≈ 31.6 µM) | Nc1nc(N)c2ccc3c(ccn3CC3CC3)c2n1 [Example 28, 7-(cyclopropylmethyl)-7H-pyrrolo[2,3-h]quinazoline-2,4-diamine] | – | – | – |
| 32 µg/mL (≈ 105 µM) | Nc1nc(N)c2ccc3c(ccn3C(=O)c3ccccc3)c2n1 [Example 29, (2,4-diamino-7H-pyrrolo[2,3-h]quinazolin-7-yl)(phenyl)methanone] | – | – | – |
| 16 µg/mL (≈ 41.9 µM) | Cc1cc2c3nc(N)nc(N)c3ccc2n1Cc1cccc(Br)c1 [Example 30, 7-(3-bromobenzyl)-8-methyl-7H-pyrrolo[2,3-h]quinazoline-2,4-diamine] | – | – | – |
| > 64 µg/mL | Cc1cc2c3nc(N)nc(N)c3ccc2n1Cc1ccc(-c2ccccc2-c2nnn[nH]2)cc1 [Example 32, 7-((2′-(1H-tetrazol-5-yl)-[1,1′-biphenyl]-4-yl)methyl)-8-methyl-7H-pyrrolo[2,3-h]quinazoline-2,4-diamine] | – | – | – |
| 8 µg/mL (≈ 22.2 µM) | Cc1cc2c3nc(N)nc(N)c3ccc2n1Cc1nc2ccccc2s1 [Example 33, 7-(benzo[d]thiazol-2-ylmethyl)-8-methyl-7H-pyrrolo[2,3-h]quinazoline-2,4-diamine] | – | – | – |
| – | N#Cc1ccccc1-c1ccc(Cn2ccc3c4nc(N)nc(N)c4ccc32)c(F)c1F [Example 40, 4′-((2,4-diamino-7H-pyrrolo[2,3-h]quinazolin-7-yl)methyl)-2′,3′-difluoro-[1,1′-biphenyl]-2-carbonitrile] | >64¤ | 0.25¤ | ≤0.063¤ |
| – | N#Cc1ccccc1-c1ccc(Cn2ccc3c4nc(N)nc(N)c4c(Br)cc32)cc1F [Example 46, 4′-((2,4-diamino-5-bromo-7H-pyrrolo[2,3-h]quinazolin-7-yl)methyl)-2′-fluoro-[1,1′-biphenyl]-2-carbonitrile] | >64¤ | 4¤ | 2¤ |
| – | Nc1nc(N)c2c(Br)cc3c(ccn3Cc3cccc(Br)c3)c2n1 [Example 47, 5-bromo-7-(3-bromobenzyl)-7H-pyrrolo[2,3-h]quinazoline-2,4-diamine] | 8¤ | 4¤ | 4¤ |
| – | Nc1nc(NCc2cccc(Br)c2)nc2c1c(Br)cc1c2ccn1Cc1cccc(Br)c1 [Example 48, 5-bromo-N^2,7-bis(3-bromobenzyl)-7H-pyrrolo[2,3-h]quinazoline-2,4-diamine] | >64¤ | >64¤ | >64¤ |
| – | N#Cc1ccccc1-c1ccc(Cn2ccc3c4nc(N)nc(N)c4cnc32)cc1F [Example 51, 4′-((2,4-diamino-7H-pyrrolo[3′,2′:5,6]pyrido[4,3-d]pyrimidin-7-yl)methyl)-2′-fluoro-[1,1′-biphenyl]-2-carbonitrile] | >64¤ | ≤0.063¤ | ≤0.063¤ |
| – | N#Cc1ccccc1-c1ccc(CNc2nc(N)c3cnc4c(ccn4Cc4ccc(-c5ccccc5C#N)c(F)c4)c3n2)cc1F [Example 52, 4′-((4-amino-2-(((2′-cyano-2-fluoro-[1,1′-biphenyl]-4-yl)methyl)amino)-7H-pyrrolo[3′,2′:5,6]pyrido[4,3-d]pyrimidin-7-yl)methyl)-2′-fluoro-[1,1′-biphenyl]-2-carbonitrile] | >64¤ | >64¤ | >64¤ |
| – | C#Cc1ccc(Cn2ccc3c4nc(N)nc(N)c4cnc32)cc1 [Example 53, 7-(4-ethynylbenzyl)-7H-pyrrolo[3′,2′:5,6]pyrido[4,3-d]pyrimidine-2,4-diamine] | >64¤ | ≤0.063¤ | ≤0.063¤ |
| – | CN[C@H](CC(C)C)C(=O)N[C@H]1C(=O)N[C@@H](CC(N)=O)C(=O)N[C@H]2C(=O)N[C@H]3C(=O)N[C@H](C(=O)N[C@H](C(=O)O)c4cc(O)cc(O)c4-c4cc3ccc4O)[C@H](O)c3ccc(c(Cl)c3)Oc3cc2cc(c3O[C@@H]2O[C@H](CO)[C@@H](O)[C@H](O)[C@H]2O[C@H]2C[C@](C)(N)[C@H](O)[C@H](C)O2)Oc2ccc(cc2Cl)[C@H]1O [VAN, reference compound] | – | 2¤ | 2¤ |
